This is an account of results in patent publication US9259433B2, “Synergistic antiviral compositions comprising a viral attachment inhibitor, an integration inhibitor, and a proviral transcription inhibitor, and their use” (priority 2007, dated 2016).

Structures are written as SMILES. Like-named read-outs stand apart in the source and are kept apart here.

Data set [1] has as its target HIV-1 integrase (Human immunodeficiency virus type 1 group M subtype B, UniProt P04585). As to the kind of experiment: HIV-1 integrase catalytic activity of 3'-joining to the target DNA. Format: biochemical. To be noted: read-out: IC50, 3′-joining to the target DNA. From the text: (§1) a. Salvia genus of Labiaceae family contains approximately 1000 species. 78 of these are distributed in different regions in China. […] An INi search was established based on an assay-guided purification procedure utilizing different concentrations of methanol, propanol, a two-layer extraction system (low salt water/butanol), and a high resolution inverted phase HPLC (Sperisorb OD S-2).

For data set [2], the system named is H9 cells. Format: cell-based. To be noted: 192 h. How it is done: A series of drug concentrations ranging from 1.25 μg/ml to 160 μg/ml were used for testing the cytotoxicity of M522 and M532 in H9 cells, using the MTT assay to determine the viability of H9 cells in culture. […] In fact, the drug-protected, HIV-infected H9 cells appeared to be morphologically identical to the uninfected control cells (6).
(§2) Similarly, PBMC cells were isolated from a healthy blood sample and these cells were stimulated by PHA and IL-2. PBMC (5×10^6/ml) were infected with HIV-1RTMF. The cells were treated with three combinations of drugs, M522, Gen-1 and G4N. Fresh media and drugs were added after 4 days with drug concentrations 0, 1.25, 2.5, 5, 10, 20, 40 and 80 μM. The inhibition for HIV-1 by these combinations of drugs was also examined by using p24 assay after 8 days. […] In comparison, cytotoxicity for the three drugs combined to H9 cells was also analyzed using an MTT assay.

For data set [3], the target named is deletion mutant HIV-1 integrase (IN^50-212) (Human immunodeficiency virus type 1 group M subtype B, UniProt P04585). Briefly: Disintegration assay. Format: biochemical. The following applies: IN^50-212 core domain; equal efficacy with wild type. How it is done:
(§3) To determine whether M522 and M532 are acting against the catalytic core domain specifically, disintegration assay was tested using deletion mutant IN containing only the core domain of HIV integrase. Such deletion mutant is defective for normal integration, but it is capable of catalyzing a reversal of the forward reaction, termed “disintegration”. The disintegration reaction can be assayed by using a deletion mutant HIV-1 integrase (IN^50-212) which lacks both the amino terminal zinc binding and the carboxyl terminal DNA binding domains but remains active in this assay, whereas such truncated IN loses activity in the 3′-processing and joining (strand transfer) assays. So, disintegration assay can be used to probe the site of drug-enzyme binding.

Data set [4] has as its target wild type HIV-1 integrase (Human immunodeficiency virus type 1 group M subtype B, UniProt P04585). As to the kind of experiment: Disintegration assay. Format: biochemical. To be noted: equal efficacy with deletion mutant. As to the method:
as §3

For data set [5], the target named is T1, reverse transcriptase (Human immunodeficiency virus type 1 group M subtype B, UniProt P04585).
T1 construct: endogenous in cells; host or cells: HIV-infected cells (H9 cells named in the same paragraph)
Briefly: Reverse transcriptase activity and viral DNA levels in infected cells. Format: cell-based, HIV.
Excerpt: as §1

Data set [6] has as its system HIV-1RTMF (AZT-resistant virus). Briefly: HIV replication in infected H9 cells, HIV/p24 monoclonal antibody assay. Format: cell-based. To be noted: H9 cells infected with HIV-1RTMF in the presence of drug. How it is done:
The inhibitory effect of M522 and M532 against HIV replication was further examined using 5 different strains of HIV-1, drug resistant and primary isolates in the presence of a variety of drug concentrations in infected H9 cells.
A series of drug concentrations ranging from 1.25 μg/ml to 160 μg/ml were used for testing the cytotoxicity of M522 and M532 in H9 cells, using the MTT assay to determine the viability of H9 cells in culture.

Data set [7] relates to HIV-1. As to the kind of experiment: Acute HIV-1 infection of H9 cells. Format: cell-based.
Excerpt: as §1

For data set [8], the system named is HIV. Briefly: HIV entry in H9 cells. Format: cell-based. To be noted: compound by itself.
Excerpt: as §1

For data set [9], the system named is HIV particles. As to the kind of experiment: HIV-1 attachment to pre-cooled HeLa CD4+ cells, viral capsid in cell lysates. To be noted: HeLa CD4+ cells at 4° C., 30-minute attachment, up to 20 μM.
Method: To determine whether the two saponins act exclusively at the attachment step, target HeLa CD4^+ cells were initially pre-cooled at 4° C. before viral exposure to exclude the possibility of virus internalization. Each compound, at graded concentrations, was then mixed with HIV particles and added to target cells in cold media. After a 30-minute attachment period, the cells were profusely washed to remove unbound virus. […] H9 cells (4×10^5) were first incubated with compound and then infected with virus for one hour at 37° C. in CO2 incubator to permit virus fusion and entry. The cells were then centrifuged and washed 3 times with phosphate buffered saline (PBS) to remove the unbound virus as described previously (6,7). The viral entry was determined by p24 antigen-capture assay. For the drug effect on HIV-1 replication and infection, the culture was incubated for 8 days. Viral replication was determined by the amount of HIV-1 p24 antigen in culture supernatant after 8 days of virus infection in H9 cells using the HIV/p24 monoclonal antibody assay (8). […] Only low concentrations were used for testing to minimize the cellular toxicities of the drug.
The test system of data set [10] is red blood cells. As to the kind of experiment: Hemolysis, release of hemoglobin from red blood cells. Format: cell-based. As to the method: As such, Rev-1 and Gen-1 are both hemolytic, a property which may restrict potential use in therapy. To see whether modification of C28 sugar side chain can abolish such hemolytic effect, we acetylated the hydroxyl group of the C28 sugars with acetic anhydride. Briefly, 10 ml of pyridine and 5 ml acetic anhydride were added to a solution of pure tieghemella (Gen-1, 100 mg) in 5 ml methanol at 0° C. The solution mixture was allowed to reflux for […]. The resultant mixture was extracted with water at 20° C. as described in reference 9. The aqueous solution was washed several times with dichloromethane. The water filtrate was dried under the hood to afford oAc-Gen-1; (160 mg). We compared the hemolytic effect of Gen-1 and oAc-Gen-1 by measuring the release of hemoglobin from red blood cells in the presence of Gen.1 or o-Ac Gen.

Data set [11] deals with HIV-1RTMF. Briefly: Drug combination study in H9 cells infected with HIV-1RTMF, p24 assay. Format: cell-based. The following applies: Human immunodeficiency virus 1, H9, 192 h.
Excerpt: We tested drug combinations against two different cells infected with laboratory strain of HIV-1 RTMF. For these drug combinational studies, both the H9 cells and human PBMC have been used. We first tested how our inhibitors affect one specific strain of HIV which is resistant to drug against RT (HIV-1RTMF). Briefly H9 (1×10^5/ml) were infected with HIV-1RTMF strain with a multiplicity of infection of 0.1. These cells were further tested with three drugs, M522, Gen-1 and G4N, either in combination or separately (8, 10, 21B). After 4-day incubation at 37° C., H9 cells were subcultured with fresh culture medium containing appropriate concentrations 0, 1.25, 2.5, 5, 10, 20, 40 and 80 μM of each of the drugs, or of a combination of all three of the drugs, each at the indicated concentration. The inhibition for HIV-1 by these combinations of drugs was examined using p24 assay after 8 days.
as §2

Data set [12] has as its system wild type HIV-1 envelope. Briefly: HIV-based cell-cell fusion (syncytium) assay, co-culture of HeLa-CD4+ cells and CHO-WT cells. To be noted: for antiviral entry activity: HIV entry / syncytium formation. From the text:
Tieghemella heckelii (Sapotaceae, Th) is a large tree found in the West African rain forest. In January and February, the plant blossoms and develops ovoid fruits of 8 cm length and 7 cm diameter, which ripen in July-October. Many parts of the tree are used in traditional medicine. We have used a series of high-speed counter-current chromatography (HSCC), viral entry and infectivity assay and HIV-based cell-cell fusion assay to isolate specific HIV viral entry inhibitors from the ovoid fruits of the plants. The procedures for the isolation have been described in detail (4). Two pure saponin compounds, Arganine C (Rev 1) and Tieghemella (Gen. 1) have been isolated with the yield of 0.48% and 0.6% respectively.
In HIV infection, syncytia are the result of viral attachment and cell membrane fusion which create giant multi-nucleated cells consisting of both infected and uninfected cells. Rev. 1 and Gen. […] Rev-1 and Gen-1 are structurally identical except for one attached group at C23 (FIG. 1A). C23 glucose for Rev-1 and glucuronic acid for Gen-1 (4, 5). Their antiviral activity requires the C28 sugar chain. […] The four sugars in the substituent at the C28 position are L-arabinose, L-rhamnose, D-xylose and L-rhamnose (FIG. 1B).

Data set [13] deals with HIV transcription. The following applies: cited from earlier work.
The subject of data set [14] is HSV-2. Briefly: Mouse vaginal model of HSV-2 infection. To be noted: 10 mM. Format: in vivo, female CF-1 mice. The source says: P4N was also found to be quite effective.
Data set [15] has as its system Sp1 binding sites of the HIV long terminal repeat (LTR). The following applies: in vitro; cited from earlier work.

Usually IC50 stands for the concentration at which inhibition is half-maximal.

As for `O=C(/C=C/c1ccc(O)c2c1[C@H](C(=O)O[C@H](Cc1ccc(O)c(O)c1)C(=O)O)[C@@H](c1ccc(O)c(O)c1)O2)O[C@H](Cc1ccc(O)c(O)c1)C(=O)O` [M532, lithospermic acid B], the IC50 is 0.37 µM in [1] and 6.9 µM in data set [7]. Also, the “CC100 (highest concentration tested, cells remained viable)” value in [2] stood at 160 µg/mL. Moreover, the inhibition of disintegration entry in [3] and in data set [4] was “inhibited” throughout. In addition, the “levels of intracellular strong stop and full-length viral DNA” value in [5] (following drug treatment) is “remained unchanged”. In [5] (infected cells), the “inhibition of reverse transcriptase activity” value is listed as “no inhibition of reverse transcriptase activity”. Besides, the syncytia formation entry in data set [6] is “syncytia formation was prevented”. In addition, in data set [8], the “prevention of HIV entry” value was “Neither M522 nor M532 by itself prevents HIV entry”.

Turning to `C[C@@H]1O[C@@H](O[C@@H]2[C@@H](O)[C@H](O[C@@H]3[C@@H](O)[C@@H](O)[C@H](O[C@H]4[C@H](OC(=O)[C@]56CCC(C)(C)C[C@H]5C5=CC[C@@H]7[C@@]8(C)C[C@H](O)[C@H](O[C@@H]9O[C@H](C(=O)O)[C@@H](O)[C@H](O)[C@H]9O)[C@@](C)(CO)[C@@H]8[C@H](O)C[C@@]7(C)[C@]5(C)C[C@H]6O)OC[C@H](O)[C@@H]4O)O[C@H]3C)OC[C@H]2O)[C@H](O)[C@H](O)[C@H]1O` [Gen-1, Tieghemelin], the inhibition of attachment result in data set [9] is “dose-dependent inhibition of attachment”. Besides, in data set [10], the hemolytic effect result is recorded as “hemolytic”. Also, the “red blood cells lysed” value in data set [10] (57 μM) stood at 50%. Moreover, the 50% inhibitory concentration (IC50) in data set [11] came out at 40 µM; in data set [12] (Human immunodeficiency virus 1), 17 µM. Further, the antiviral entry activity result in data set [12] is “less potent”.

For `CC1(C)CC[C@]2(C(=O)O)[C@H](O)C[C@]3(C)C(=CC[C@@H]4[C@@]5(C)C[C@H](O)[C@H](O[C@@H]6O[C@H](C(=O)O)[C@@H](O)[C@H](O)[C@H]6O)[C@@](C)(CO)[C@@H]5[C@H](O)C[C@]43C)[C@@H]2C1` [A-GEN, 16α-hydroxyprotobassic acid 3-0-β-D-glucuronopyranoside], the inhibition of attachment entry in data set [9] was “totally devoid of activity”. In addition, the antiviral entry activity entry in [12] is reported as “total loss of antiviral entry activity”.

Turning to `COc1cc(C[C@H](C)[C@H](C)Cc2ccc(O)c(O)c2)ccc1O` [3′-O-methyl NDGA], the “inhibition of HIV transcription” value in [13] is reported as “specifically block HIV transcription”.

For the compound `C[C@H](Cc1ccc(OCCN2CCCCC2)c(OCCN2CCCCC2)c1)[C@@H](C)Cc1ccc(OCCN2CCCCC2)c(OCCN2CCCCC2)c1` [P4N], the average scale in [14] is listed as 0.19. In [14] (10 mice per group), the animals infected is recorded as 2 of 10. For the same compound, the “effect on Sp1 binding” value in [15] was “disrupt Sp1 transcription factor binding”.

`CC(Cc1ccc(O)c(O)c1)C(C)Cc1ccc(O)c(O)c1` (stereo not shown) [NDGA, nordihydroguaiaretic acid, reference compound]: in data set [15], the “effect on Sp1 binding” value is given as “no effect on Sp1 binding”. Also, the “inhibition of HIV transcription” value in data set [13] is given as “does not inhibit HIV transcription”.

With `C[C@@H]1O[C@@H](O[C@@H]2[C@@H](O)[C@H](O[C@@H]3[C@@H](O)[C@@H](O)[C@H](O[C@H]4[C@H](OC(=O)[C@]56CCC(C)(C)C[C@H]5C5=CC[C@@H]7[C@@]8(C)C[C@H](O)[C@H](O[C@@H]9O[C@H](CO)[C@@H](O)[C@H](O)[C@H]9O)[C@@](C)(CO)[C@@H]8[C@H](O)C[C@@]7(C)[C@]5(C)C[C@H]6O)OC[C@H](O)[C@@H]4O)O[C@H]3C)OC[C@H]2O)[C@H](O)[C@H](O)[C@H]1O` [Rev.1, arganine C], the inhibition of attachment entry in [9] was “dose-dependent inhibition of attachment”. In addition, the hemolytic effect result in data set [10] (effective drug concentrations that blocked viral entry) is listed as “hemolytic”. The antiviral entry activity entry in data set [12] is recorded as “strongly inhibited”. For the same compound, the IC50 in data set [12] (HIV-based cell-cell fusion assay (FIG. 1), read-out: IC50) was 2.8 µM.

Take `CC1(C)CC[C@]2(C(=O)O)[C@H](O)C[C@]3(C)C(=CC[C@@H]4[C@@]5(C)C[C@H](O)[C@H](O[C@@H]6O[C@H](CO)[C@@H](O)[C@H](O)[C@H]6O)[C@@](C)(CO)[C@@H]5[C@H](O)C[C@]43C)[C@@H]2C1` [A-REV, 16α-hydroxyprotobassic 3-0-β-D-glycopyransoide]: in data set [12], the antiviral entry activity entry is given as “total loss of antiviral entry activity”.
